From US20060166941A1, “Treatment and/or prevention of non-viral epithelial damage” (Epistem Limited, priority 2003, published 2006)
Where “and” joins values, the source holds several entries; their conditions need not be identical. Identical values can stand only once. Counter-ions that a name gives are not always drawn.

Key:
[1] = tested on: clonogenic stem cells of the digestive epithelium; test: In vivo protection of intestinal epithelium clonogenic stem cells, chemotherapy drug (5-Flurouracil) damage; set-up: species or system mice
Experimental: In Vivo Protection of Intestinal Epithelium Clonogenic Stem Cells—Chemotherapy Drug Damage.
The ability of foscarnet (phosphonoformic acid trisodium salt hexahydrate) to prevent cytotoxic damage to clonogenic stem cells of the digestive epithelium was illustrated by the following experiment.
The model of cytotoxic insult used was treatment with 2 doses of 5-Flurouracil 6 hours apart at either 400 mg or 500 mg of 5-Fluorouracil/kilogram bodyweight. Such cytotoxic treatment provides a model of chemotherapy administered to patients undergoing treatment for cancer.
Five experimental groups, each of five mice, were established as set out below:
Group 1: Received intra-peritoneal injection, containing 50 mg foscarnet/kilogram bodyweight, in sterile water, one hour prior to the first cytotoxic treatment (400 mg 5-Flurouracil/kilogram bodyweight). Received one further identical injection on each of the three days following cytotoxic treatment. […]
Group 3: Vehicle control. Received intra-peritoneal injection, of sterile water, one hour prior to both cytotoxic treatments (400 mg 5-Flurouracil/kilogram bodyweight). Received one further identical injection on each of the three days following cytotoxic treatment. […]
On the fourth day after treatment the animals of each group were killed, and intestinal tissue harvested for histological analysis. Tissue sections were stained with haemotoxylin and eosin, and were analysed for the presence of regenerating intestinal crypts. Regenerating intestinal crypts are derived from one or more surviving clonogenic stem cells, whereas sterilised crypts (containing no surviving stem cells) disappear within two days of irradiation. The number of regenerating crypts per intestinal circumference was counted, and the mean crypt width measured. Scores for each animal were then corrected to account for the probability of preferentially scoring larger crypts according to the following equation: [formula]
For each treatment a Protection Factor was calculated using the following equation: corrected crypts/circumference treated corrected crypts/circumference untreated (vehicle)

oral mucosa = test: In vivo protection of oral mucosa following radiation damage (20 Gy head only), ventral tongue cellularity; set-up: species or system mice; details: 50 mg/kg 1 hr prior to 20 Gy (head only) and once a day until sampling; versus vehicle
Excerpt: In Vivo Protection of Oral Mucosa Following Radiation Damage. The ability of foscarnet (phosphonoformic acid trisodium salt hexahydrate) to prevent radiological damage to oral mucosa was illustrated by the following experiment. The model of cytotoxic insult used was treatment with 20 Gy X-ray radiation (head only) at a dose rate of 0.7 Gy/minute. Such radiation treatment provides a model of radiotherapy administered to patients undergoing treatment for cancer Experimental groups, each of four mice, were established as set out below: Group 1: Received intra-peritoneal injection, containing 50 mg foscarnet/kilogram bodyweight, in sterile water, one hour prior to radiation. Received one further identical injection on each of the two days following radiation. On the third day after radiation the animals were killed, and oral tissue harvested for analysis. […] Using a Zeiss AxioHOME the number of bromodeoxyuridine labelled and unlabelled cells were assessed in both the basal and suprabasal layers of the ventral surface of the tongue. The area from the basal layer to the stratum corneum stratum granulosum interface was measured along with the length of the basal layer. […] From these measurements the damage that the radiation had caused to the tongue could be assessed as overall cellularity of the tongue or the total number of cells/unit area (mm^2). […]

[2] = 50 mg foscarnet 1 hr prior to 1st dose of 5-Flurouracil (400 mg/kg x 2 6 hrs apart) and D1, D2, D3, group Average
[3] = 50 mg foscarnet 1 hr prior to 1st dose of 5-Flurouracil (400 mg/kg x 2 6 hrs apart) and D1, D2, D3, individual mice
[4] = 50 mg foscarnet 1 hr prior to both doses of 5-Flurouracil (400 mg/kg x 2 6 hrs apart) and D1, D2, D3, group Average
[5] = 50 mg foscarnet 1 hr prior to both doses of 5-Flurouracil (400 mg/kg x 2 6 hrs apart) and D1, D2, D3, individual mice
[6] = 50 mg foscarnet 1 hr prior to both doses of 5-Flurouracil (500 mg/kg x 2 6 hrs apart) and D1, D2, D3, group Average
[7] = 50 mg foscarnet 1 hr prior to both doses of 5-Flurouracil (500 mg/kg x 2 6 hrs apart) and D1, D2, D3, individual mice
[8] = group 1: 50 mg/kg foscarnet 1 hr prior to first 5-Flurouracil dose (400 mg/kg x 2) and 3 days after

For O=C(O)P(=O)(O)O [foscarnet, phosphonoformic acid trisodium salt hexahydrate], the “Protection Factor” value ([1]; 50 mg foscarnet 1 hr prior to 1st dose of 5-Flurouracil (400 mg/kg x 2 6 hrs apart) and D1, D2 & D3) was 1.87, the corrected crypts/circumference [1, 2] was 20.0 and the no. crypts/circumference [1, 2] was 21.5. The corrected crypts/circumference [1, 3] was 11.0 and 23.2 and 17.2 and 16.5 and 32.1, the no. crypts/circumference [1, 3] was 12.4 and 24.1 and 17.9 (2×) and 35.2 and the “Protection Factor” value ([1]; 50 mg foscarnet 1 hr prior to both doses of 5-Flurouracil (400 mg/kg x 2 6 hrs apart) and D1, D2 & D3) was 1.59. For the same compound, the corrected crypts/circumference [1, 4] was 17.0, the no. crypts/circumference [1, 4] was 18.1 and the corrected crypts/circumference [1, 5] was 14.3 and 16.3 and 20.6 and 11.4 and 22.5. The no. crypts/circumference [1, 5] was 15.9 and 16.8 and 22.8 and 11.4 and 23.4, the “Protection Factor” value ([1]; 50 mg foscarnet 1 hr prior to both doses of 5-Flurouracil (500 mg/kg x 2 6 hrs apart) and D1, D2 & D3) was 1.46 and the corrected crypts/circumference [1, 6] was 10.2. The no. crypts/circumference [1, 6] was 10.5, the corrected crypts/circumference [1, 7] was 8.5 and 13.0 and 16.3 and 5.6 and 7.6 and the no. crypts/circumference [1, 7] was 8.5 and 13.0 and 17.9 and 6.0 and 7.3. For the same compound, the “numbers of intestinal crypts after exposure to 5-Flurouracil” value ([1]; Groups 1, 2 and 4 (50 mg foscarnet/kg regimens)) was “increased numbers of intestinal crypts”, the “more crypts compared to mice treated with vehicle alone” value [1, 8] was about 50% and the “more small intestinal clonogenic stem cells survived” value [1, 8] was “at least 50%”. The “average number of cells/unit area, ventral tongue epithelium (FIG. 7)” value (oral mucosa) was “increased” and the “overall cellularity of the ventral tongue over time (FIG. 6)” value (oral mucosa) was “increased”.
